Measured values as given in patent publication US20120309087A1, “CANCER THERAPY” (University Court of The University of Dundee, priority 2006, published 2012).

Tests used:
Fas-induced killing = settings: WO 01/57189; cited from earlier work
[1] = system: ARE-driven luciferase activity in AREc32 cells; assay: Induction of ARE-driven luciferase activity in stable AREc32 reporter cells; assay type: cell-based, human; settings: for CD, concentration of inducting agent that doubled luciferase reporter activity: DMSO set at 1; for effect on luciferase activity in AREc32 cells (in words): sub-lethal doses, no BSO; for Type of modulation: grouping of drugs by effect on luciferase activity; for effect of BSO pre-treatment on luciferase activity: 50 μM BSO 24 h before drug, data not shown
[2] = system: AKR1C1 and NQO1 mRNA in Caco-2 cells; assay: AKR1C1 and NQO1 mRNA in Caco-2 cells (TaqMan); assay type: cell-based, human; settings: sulforaphane 5 μM, 24 hrs
Experimental: (§1) Method: AREc32 cells were seeded out in 96 well plates and treated with DMSO (control), tBHQ (50 μM), tBHQ+BTB09463 (5 μM) or tBHQ+Retinoic acid (1 μM). After 24 hours incubation, cells were washed and lysed before measuring luciferase activity. BTB09463 is 1-{4-[(3,4-dichlorobenzyl)oxy]phenyl}ethan-1-one. […] Method: AREc32 cells were seeded out in 96 well plates and dosed with BTB09463 (2.5, 5 or 10 μM) for 0, 24 or 48 hrs before treatment with tBHQ (50 μM). 24 hours after the addition of tBHQ, cells were washed and lysed before measuring luciferase activity. […] Method: ARE c32 cells were seeded out in 96 well plates and treated with DMSO (control), tBHQ (50 μM), tBHQ+retinoid (0.25, 0.5 and 1 μM). After 24 hours incubation, cells were washed and lysed before measuring luciferase activity. […] See FIG. 16 Method: A. Caco-2 cells were treated with the known ARE-gene inducer sulforaphane (5 μM), either alone or concomitantly with BTB09463 (5 μM) or Retinoic acid (1 μM). After 24 hrs, cell lysates were prepared and Western blotting performed to measure the levels of AKR1C protein. B. MCF7 cells were treated with sulforaphane (5 μM), either alone or concomitantly with BTB09463 (5 μM). After 24 hrs, cell lysates were prepared and Western blots performed to detect the levels of AKR1C and NQO1; GAPDH was used as a loading control in MCF7 cells. […] Method: Caco-2 cells were treated with DMSO (control), BTB09463 (5 μM), sulforaphane (5 μM) or a combination of sulforaphane plus BTB09463. After 24 hrs treatment, cells were harvested and RNA isolated. cDNA for each sample was generated by reverse transcription and subsequently used in real time PCR analysis of gene transcription (TaqMan analysis) for the ARE-driven genes AKR1C1 and NQO1. Data was normalised to the internal control 18S RNA and the relative levels of AKR1C1 and NQO1 calculated using the comparative CT method. […] Method: MCF7 cells were treated with the known ARE-gene inducer sulforaphane (5 μM), either alone or with various retinoids (0.5 μM). After 24 hrs, cell lysates were prepared and Western blots were performed to detect the levels of AKR1C protein present. […] See FIG. 19 Method: ARE reporter cell line AREc23 was seeded into 96 well plates and treated with a previously determined non-toxic concentration of cytotoxic drug. After 24 hours incubation, cells were washed and lysed before measuring luciferase activity. […] See FIG. 20a Method: ARE reporter cell line AREc23 was seeded into 96 well plates and treated with DMSO (control), Carmustine (100 μM), Carmustine+BTB09463 (5 μM) or Carmustine+Retinoic acid (5 μM) After 24 hours incubation, cells were washed and lysed before measuring luciferase activity. […] After 24 hours incubation, cells were washed and lysed before measuring luciferase activity. […]

[3] = system: AKR1C and NQO1 protein in MCF7 cells; assay: AKR1C and NQO1 protein in MCF7 cells (Western blots); assay type: cell-based, human; settings: 24 hrs; for sulforaphane-induced AKR1C protein: sulforaphane 5 μM + retinoid 0.5 μM
Experimental: Method: AREc32 cells were seeded out in 96 well plates and treated with DMSO (control), tBHQ (50 μM), tBHQ+BTB09463 (5 μM) or tBHQ+Retinoic acid (1 μM). After 24 hours incubation, cells were washed and lysed before measuring luciferase activity. BTB09463 is 1-{4-[(3,4-dichlorobenzyl)oxy]phenyl}ethan-1-one. […] Method: AREc32 cells were seeded out in 96 well plates and dosed with BTB09463 (2.5, 5 or 10 μM) for 0, 24 or 48 hrs before treatment with tBHQ (50 μM). 24 hours after the addition of tBHQ, cells were washed and lysed before measuring luciferase activity. […] Method: ARE c32 cells were seeded out in 96 well plates and treated with DMSO (control), tBHQ (50 μM), tBHQ+retinoid (0.25, 0.5 and 1 μM). After 24 hours incubation, cells were washed and lysed before measuring luciferase activity. […] See FIG. 16 Method: A. Caco-2 cells were treated with the known ARE-gene inducer sulforaphane (5 μM), either alone or concomitantly with BTB09463 (5 μM) or Retinoic acid (1 μM). After 24 hrs, cell lysates were prepared and Western blotting performed to measure the levels of AKR1C protein. B. MCF7 cells were treated with sulforaphane (5 μM), either alone or concomitantly with BTB09463 (5 μM). After 24 hrs, cell lysates were prepared and Western blots performed to detect the levels of AKR1C and NQO1; GAPDH was used as a loading control in MCF7 cells. […] Method: Caco-2 cells were treated with DMSO (control), BTB09463 (5 μM), sulforaphane (5 μM) or a combination of sulforaphane plus BTB09463. After 24 hrs treatment, cells were harvested and RNA isolated. cDNA for each sample was generated by reverse transcription and subsequently used in real time PCR analysis of gene transcription (TaqMan analysis) for the ARE-driven genes AKR1C1 and NQO1. Data was normalised to the internal control 18S RNA and the relative levels of AKR1C1 and NQO1 calculated using the comparative CT method. […] Method: MCF7 cells were treated with the known ARE-gene inducer sulforaphane (5 μM), either alone or with various retinoids (0.5 μM). After 24 hrs, cell lysates were prepared and Western blots were performed to detect the levels of AKR1C protein present. […] See FIG. 19 Method: ARE reporter cell line AREc23 was seeded into 96 well plates and treated with a previously determined non-toxic concentration of cytotoxic drug. After 24 hours incubation, cells were washed and lysed before measuring luciferase activity. […] See FIG. 20a Method: ARE reporter cell line AREc23 was seeded into 96 well plates and treated with DMSO (control), Carmustine (100 μM), Carmustine+BTB09463 (5 μM) or Carmustine+Retinoic acid (5 μM) After 24 hours incubation, cells were washed and lysed before measuring luciferase activity. […] After 24 hours incubation, cells were washed and lysed before measuring luciferase activity. B. Modified repeat of experiment A, with cells being pretreated with L-buthionine-(SR)-sulfoximine (BSO), an inhibitor of enzymes in the glutathione synthesis pathway. After 24 hours incubation, cells were washed and lysed before measuring luciferase activity. […] Method: Caco-2 cells were treated for 24 hrs with DMSO (control), Carmustine (100 μM), Carmustine+BTB09463 (5 μM). After 24 hrs, cell lysates were prepared and Western blots to detect the levels of AKR1C. […] Method: MCF7 cells were treated for 24 hrs with DMSO (control; Lane 1), Sulforaphane (5 μM) (Lane 2), Carmustine (100 μM) (Lane 3), Carmustine+BTB09463 (5 μM) (Lane 5). (Lane 4 represents experimental conditions irrelevant to the application). After 24 hrs, cell lysates were prepared and Western blots to detect the levels of Nrf2, NQO1 and AKR1C proteins.

MCF7 cells = assay: cells; assay type: cell-based; settings: for synergy with Bleomycin (cell killing, isobologram): 72 hrs
[4] = system: ARE-driven luciferase activity in AREc32 cells; assay: Antagonism of induced ARE-driven luciferase activity in AREc32 cells; assay type: cell-based, human; settings: 5 mM NAC; BSO pre-treated cells; cisplatin, melphalan, chlorambucil, BCNU
[5] = system: AKR1C protein in Caco-2 cells; assay: AKR1C protein in Caco-2 cells (Western blotting); assay type: cell-based, human; settings: Carmustine 100 μM, 24 hrs
Experimental: as §1

A549 cells = assay: Cytotoxicity in A549 cells (ATP levels, 72 h); assay type: cell-based, human; settings: Homo sapiens, single agent
[6] = system: AKR1C mRNA in AREc32 cells; assay: AKR1C mRNA in AREc32 cells (TaqMan); settings: 24 h
[7] = system: AKR1C1, NQO1, GCLC, GCLM mRNA in A549 cells; assay: Constitutive mRNA of ARE-driven genes in A549 cells (Taqman); assay type: cell-based, human; settings: BTB09463 1, 5, 20, 40 μmol/l or retinoids 0.050, 0.20, 0.50, 2.0 μmol/l, 24 hrs

## O=c1oc2ccccc2c(O)c1Cc1c(O)c2ccccc2oc1=O [Dirumarol]
Fas-induced killing
  protection conferred by Nrf2 against Fas-induced killing: antagonise protection conferred by Nrf2 against Fas-induced killing

## C[S+]([O-])CCCCN=C=S (stereo not drawn) [SUL, sulforaphane]
[1]; AREc32, 24 h
  CD, concentration of inducting agent that doubled luciferase reporter activity: 2 µM
[2]
  induction of AKR1C1 mRNA: 12 fold
  induction of NQO1 mRNA: less markedly induced

## S=P(N1CC1)(N1CC1)N1CC1 [Thiotepa]
[1]; 24 h
  effect on luciferase activity in AREc32 cells (in words): no effect
[1]; AREc32, 24 h
  Type of modulation: Inactive

## COc1cc([C@@H]2c3cc4c(cc3[C@@H](O[C@@H]3O[C@@H]5CO[C@@H](C)O[C@H]5[C@H](O)[C@H]3O)[C@H]3COC(=O)[C@H]23)OCO4)cc(OC)c1O [Etopside, etoposide]
[1]
  effect of BSO pre-treatment on luciferase activity: did not change luciferase activity significantly
[1]; 24 h
  effect on luciferase activity in AREc32 cells (in words): modestly increased
[1]; AREc32, 24 h, concentration of each drug given in column Conc., mean ± S.D.
  Fold increase (luciferase activity relative to control value): 1.3 ± 0.07
[1]; AREc32, 24 h
  Type of modulation: Weak inducers

## COc1cc(C)c(/C=C/C(C)=C/C=C/C(C)=C/C(=O)O)c(C)c1C [Acitretin]
[3]
  sulforaphane-induced AKR1C protein: reduced the expression of sulforaphane-induced AKR1C
MCF7 cells
  synergy with Bleomycin (cell killing, isobologram): very potent, synergistic increase in cell killing

## CC(=O)N[C@@H](CS)C(=O)O [NAC]
[4]
  repression of anticancer drug induction of luciferase activity: nearly completely repressed

## O=C1c2c(O)ccc(O)c2C(=O)c2c(NCCNCCO)ccc(NCCNCCO)c21 [Mitozantrone]
[1]
  effect of BSO pre-treatment on luciferase activity: did not change luciferase activity significantly
[1]; AREc32, 24 h
  Type of modulation: Weak inducers

## CCOc1ccc2ccc(=O)oc2c1 [7-ethoxycoumarin]
[1]; AREc32, 24 h
  CD, concentration of inducting agent that doubled luciferase reporter activity: 100 µM

## CCC(=O)OC/C=C(C)/C=C/C=C(C)/C=C/C1=C(C)CCCC1(C)C [vitamin A propionate]
[3]
  sulforaphane-induced AKR1C protein: reduced the expression of sulforaphane-induced AKR1C

## S=C(S)N1CCCC1 [PDTC]
[1]; AREc32, 24 h
  CD, concentration of inducting agent that doubled luciferase reporter activity: 20 µM

## O=NN(CCCl)C(=O)NCCCl [BCNU, carmustine]
[1]; 24 h
  effect on luciferase activity in AREc32 cells (in words): stronger inducing agent
[1]; AREc32, 24 h
  Type of modulation: Weak inducers
[1]; previously determined non-toxic concentration, 24 hours
  induction of ARE-driven luciferase activity: 4.5 fold
[5]
  AKR1C protein expression: massive induction
[3]; Carmustine 100 μM
  NQO1 and AKR1C protein expression: caused over-expression of NQO1 and AKR1C protein
MCF7 cells; Homo sapiens, single agent
  IC50: 291 µM
A549 cells
  IC50: > 1500 µM
[6]; without BSO, 100 μM BCNU
  induction of AKR1C mRNA: 3 fold

## N.N.[Cl][Pt][Cl] [Cisplatin]
[1]; 50 μM BSO 24 h, then 10 μM cisplatin, 20 μM melphalan, 100 μM BCNU or 100 μM chlorambucil 24 h
  induction of luciferase activity after BSO pre-treatment: 3 fold
[1]; AREc32, 24 h
  Type of modulation: Weak inducers
[6]; without pre-treatment with BSO
  mRNA level of AKR1C (in words): only slightly increased

## CC(=O)OC/C=C(C)/C=C/C=C(C)/C=C/C1=C(C)CCCC1(C)C [Retinyl acetate]
[3]
  sulforaphane-induced AKR1C protein: reduced the expression of sulforaphane-induced AKR1C
MCF7 cells
  synergy with Bleomycin (cell killing, isobologram): very potent, synergistic increase in cell killing
[7]
  constitutive expression of AKR1C1 mRNA: inhibited the constitutive expression of AKR1C1 in a concentration-dependent manner

## CN(Cc1cnc2nc(N)nc(N)c2n1)c1ccc(C(=O)N[C@@H](CCC(=O)O)C(=O)O)cc1 [Methotrexate]
[1]; 24 h
  effect on luciferase activity in AREc32 cells (in words): no effect
[1]; AREc32, 24 h
  Type of modulation: Inactive

## CC(=O)O[C@H]1C(=O)[C@@]2(C)[C@H]([C@H](OC(=O)c3ccccc3)[C@]3(O)C[C@H](OC(=O)[C@H](O)[C@@H](NC(=O)c4ccccc4)c4ccccc4)C(C)=C1C3(C)C)[C@]1(OC(C)=O)CO[C@@H]1C[C@@H]2O [Paclitaxol]
[1]; 24 h
  effect on luciferase activity in AREc32 cells (in words): no effect
[1]; AREc32, 24 h
  Type of modulation: Inactive
